For orientation: Kd means the equilibrium constant for the complex coming apart. A word on the IC50: it is the point on the concentration scale where inhibition reaches its midpoint. A higher IC50 goes with a need for much substance.

The target of experiment [1] is T1, TYRO3 (Homo sapiens, UniProt Q06418).
T1 construct: purchased Life Technologies
T1 sequence (Q06418 41-890): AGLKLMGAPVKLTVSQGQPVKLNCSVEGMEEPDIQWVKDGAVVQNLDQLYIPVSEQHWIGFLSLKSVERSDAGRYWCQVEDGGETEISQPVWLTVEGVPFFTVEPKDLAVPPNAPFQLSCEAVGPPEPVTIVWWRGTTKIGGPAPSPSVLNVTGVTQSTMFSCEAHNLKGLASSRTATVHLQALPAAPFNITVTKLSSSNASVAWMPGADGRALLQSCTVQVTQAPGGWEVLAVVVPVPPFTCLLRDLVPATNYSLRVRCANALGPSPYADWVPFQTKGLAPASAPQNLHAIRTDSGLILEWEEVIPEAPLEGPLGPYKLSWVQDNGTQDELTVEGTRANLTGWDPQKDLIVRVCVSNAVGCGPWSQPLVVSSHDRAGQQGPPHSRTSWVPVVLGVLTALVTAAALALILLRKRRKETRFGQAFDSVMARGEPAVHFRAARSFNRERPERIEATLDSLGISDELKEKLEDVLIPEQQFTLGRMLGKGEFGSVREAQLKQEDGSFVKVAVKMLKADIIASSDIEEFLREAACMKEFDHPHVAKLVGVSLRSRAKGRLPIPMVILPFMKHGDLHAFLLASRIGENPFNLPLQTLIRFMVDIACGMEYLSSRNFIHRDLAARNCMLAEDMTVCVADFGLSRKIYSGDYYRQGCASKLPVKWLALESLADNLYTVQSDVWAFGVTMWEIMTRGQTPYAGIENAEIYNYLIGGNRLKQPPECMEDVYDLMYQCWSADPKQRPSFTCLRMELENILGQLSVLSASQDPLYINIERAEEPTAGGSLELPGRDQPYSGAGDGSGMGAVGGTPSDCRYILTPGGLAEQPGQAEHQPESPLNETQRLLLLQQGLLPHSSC
The experiment is described as follows: LanthaScreen Eu kinase binding assay, TYRO3. As to conditions: Tracer 236. In general terms: Time-resolved FRET reads energy transfer from a long-lived donor to a nearby acceptor.

Experiment [2] concerns Axl phosphorylation in transiently transfected HEK293T cells. The experiment is described as follows: Cellular Axl phosphorylation assay. As to conditions: Homo sapiens, HEK-293T; HEK293T cells transfected with Axl, 1 hour compound treatment, Phospho-Axl vs Total-Axl. It is filed as cell-based. The source says: Cell AXL Inhibition Assay Principle
The assay is based on the measurement of the relative amounts of Total-Axl and Phosphorylated-Axl in whole cell lysates of transiently transfected HEK293T cells. This assay is based on application of the Mesoscale western blot and subsequent electro-chemiluminescence detection. Overexpression of Axl-RTK (Receptor tyrosine kinase) by transfection leads to an increase in Axl-trans-autophosphorylation events. Upon compound treatment, the correlation of the measured values of Phosphorylated-Axl and Total Axl indicate the potential of the tested compound to inhibit Axl-phosphorylation at the given compound concentration.
Cell AXL Inhibition Assay Protocol
HEK293T cells (2.5×10^4/well) were plated in a 96 well plate and cells were transfected with pcDNA_DEST_40 Axl or pcDNA_DEST_40 by Superfact reagent (Qiagen. Co. Ltd.). After overnight, the transfection reagent of each well was removed from cells and replaced by fresh prewarmed medium. On the following day, cells were treated with the respective test compound which was diluted by the same method, as in the Axl binding assay using DMSO, for 1 hour
After incubation with the test compounds, cells in the well of the plate were lysed using Tris lysis buffer. The lysate was transferred to two plates (total-Axl and phosphor-Axl) Mesoscale high bind plates and incubated for two hours at room temperature. Afterwards the lysates were removed from the plates and the plates were blocked using Blocking buffer. Subsequently Total-Axl antibody (H-124, Santa Cruz) was transferred to one Mesoscale high bind plate, and Phospho-Axl antibody (AF2228, R&D) to the other plate. After 1 h incubation, Sulpho-Tag antibody (goat anti-rabbit, Mesoscale) was added and again incubated for 1 hour. For the measurement, 2×MSD read buffer was added to each well and the plates were analyzed with a Mesoscale Sector Imager 2400. IC50 (half the maximal inhibitory concentration) was determined relative to between the vehicle (DMSO) control group and minimum control group as transfection of the control vector (pcDNA_DEST_40).
The results after this assay are shown in table 3 for selected compounds.

Regarding `CCOc1cn(-c2ccc(Cl)c(CN(C)C)c2)nc1C(=O)Nc1ccc(Oc2ccnc3cc(OC)c(OC)cc23)cn1` [Compound 126], in experiment [1], the Kd is not below 1000 nM. In addition, the IC50 in experiment [2] was less than 100 nM.
The molecule `CCOc1cn(-c2cn[nH]c2)nc1C(=O)Nc1ccc(Oc2ccnc3cc(OC)c(OC)cc23)cn1` [Compound 8] registered a Kd in experiment [1] of 100 to 1000 nM. In addition, the IC50 in experiment [2] is less than 100 nM.
In the same order, the values of `CCOc1cn(-c2ccc(C(C)C)cc2)nc1C(=O)Nc1ccc(Oc2ccnc3cc(OC)c(OC)cc23)cn1` [Compound 116] are not below 1000 nM and less than 100 nM.
In the case of `COc1cc2nccc(Oc3ccc(NC(=O)c4nn(-c5ccc(F)cc5C)cc4OCC(F)(F)F)nc3)c2cc1OC` [Compound 203], the Kd in experiment [1] was less than 100 nM. The molecule further registered an IC50 in experiment [2] of less than 100 nM.
With `CCOc1cn(-c2cccnc2)nc1C(=O)Nc1ccc(Oc2ccnc3cc(OC(C)CC)c(OC)cc23)cn1` (stereo not shown) [Compound 206], the Kd in experiment [1] is not below 1000 nM. Besides, in experiment [2], the IC50 was less than 100 nM.
In the same order, the values of `CCOc1cn(-c2cnccc2C(C)(C)O)nc1C(=O)Nc1ccc(Oc2ccnc3cc(OC)c(OC)cc23)cn1` [Compound 184] are less than 100 nM and less than 100 nM.
The like results for `CCOc1cn(-c2nccnc2Cl)nc1C(=O)Nc1ccc(Oc2ccnc3cc(OC)c(OC)cc23)cn1` [Compound 177] were, in that order, less than 100 nM and less than 100 nM.
The like results for `COc1cc2nccc(Oc3ccc(NC(=O)c4nn(-c5ccc(OC(F)(F)F)cc5Cl)cc4OCC(F)(F)F)nc3)c2cc1OC` [Compound 186] were, in that order, 100 to 1000 nM and less than 100 nM.
Consider `CCOc1cn(-c2ncn(C)n2)nc1C(=O)Nc1ccc(Oc2ccnc3cc(OC)c(OC)cc23)cn1` [Compound 165], for which the Kd in experiment [1] fell in the range of 100 to 1000 nM. The molecule also gave an IC50 in experiment [2] of less than 100 nM.
As to `CCOc1cn(-c2ccc(C(C)C)cc2F)nc1C(=O)Nc1ccc(Oc2ccnc3cc(OC)c(OC)cc23)cn1` [Compound 127], in experiment [1], the Kd was not below 1000 nM. In experiment [2], this molecule yielded an IC50 of less than 100 nM.
Take `CCOc1cn(-c2ccc(F)cc2CC)nc1C(=O)Nc1ccc(Oc2ccnc3cc(OC)c(OC)cc23)cn1` [Compound 112]: in experiment [1], the Kd was less than 100 nM. The molecule further came in with an IC50 in experiment [2] of less than 100 nM.
`CCOc1cn(-c2cnccc2CO)nc1C(=O)Nc1ccc(Oc2ccnc3cc(OC)c(OC)cc23)cn1` [Compound 179] came in with a Kd in experiment [1] of less than 100 nM. The IC50 in experiment [2] is less than 100 nM.
Take `CCOc1cn(-c2nc[nH]n2)nc1C(=O)Nc1ccc(Oc2ccnc3cc(OC)c(OC)cc23)cn1` [Compound 168]: the Kd in experiment [1] is less than 100 nM. In experiment [2], the IC50 was less than 100 nM.
In the case of `CCOc1cn(-c2ccc(N)nc2)nc1C(=O)Nc1ccc(Oc2ccnc3cc(OC)c(OC)cc23)cn1` [Compound 6], the Kd in experiment [1] was less than 100 nM. This molecule also showed an IC50 in experiment [2] of less than 100 nM.
`CCOc1cn(-c2cnccc2Cl)nc1C(=O)Nc1ccc(Oc2ccnc3cc(OC)c(OC)cc23)cc1F` [Compound 194] came in with a Kd in experiment [1] of less than 100 nM. The molecule further yielded an IC50 in experiment [2] of less than 100 nM.
Molecule `CCOc1cn(-c2ccc(Cl)cc2Cl)nc1C(=O)Nc1ccc(Oc2ccnc3cc(OC)c(OC)cc23)cn1` [Compound 108] returned a Kd in experiment [1] of less than 100 nM. In experiment [2], this molecule showed an IC50 of less than 100 nM.
`CCOc1cn(-c2ccc(F)cc2C)nc1C(=O)Nc1ccc(Oc2ccnc3cc(OC)c(OC)cc23)nn1` [Compound 97] showed a Kd in experiment [1] not below 1000 nM. The molecule also returned an IC50 in experiment [2] of less than 100 nM.
With `CCOc1cn(-c2ccc(OC(F)(F)F)cc2Cl)nc1C(=O)Nc1ccc(Oc2ccnc3cc(OC)c(OC)cc23)c(F)c1` [Compound 189], the Kd in experiment [1] is less than 100 nM. For the same molecule, the IC50 in experiment [2] was less than 100 nM.
Regarding `CCOc1cn(-c2cnccc2C)nc1C(=O)Nc1ccc(Oc2ccnc3cc(OC)c(OC)cc23)nn1` [Compound 210], in experiment [1], the Kd fell in the range of 100 to 1000 nM. In experiment [2], this molecule displayed an IC50 of less than 100 nM.
`CCOc1cn(-c2ccc(C)cc2F)nc1C(=O)Nc1ccc(Oc2ccnc3cc(OC)c(OC)cc23)cn1` [Compound 100] showed a Kd in experiment [1] of 100 to 1000 nM. The molecule further returned an IC50 in experiment [2] of less than 100 nM.
Consider `CCOc1cn(-c2ccc(Cl)cc2C(F)(F)F)nc1C(=O)Nc1ccc(Oc2ccnc3cc(OC)c(OC)cc23)cn1` [Compound 101], for which the Kd in experiment [1] lay in the range of 100 to 1000 nM. Further, in experiment [2], the IC50 was less than 100 nM.
The like results for `CCOc1cn(-c2ccnc(O)c2)nc1C(=O)Nc1ccc(Oc2ccnc3cc(OC)c(OC)cc23)cn1` [Compound 7] were, in that order, not below 1000 nM and not below 1000 nM.
In the same order, the values of `CCOc1cn(-c2ccc(F)c(CN(C)C)c2)nc1C(=O)Nc1ccc(Oc2ccnc3cc(OC)c(OC)cc23)cn1` [Compound 124] are less than 100 nM and less than 100 nM.
The like results for `CCOc1cn(-c2cnc(CO)nc2)nc1C(=O)Nc1ccc(Oc2ccnc3cc(OC)c(OC)cc23)cn1` [Compound 96] were, in that order, not below 1000 nM and less than 100 nM.
The molecule `CCOc1cnn(-c2cncs2)c1C(=O)Nc1ccc(Oc2ccnc3cc(OC)c(OC)cc23)cn1` [Compound 16] registered a Kd in experiment [1] of 100 to 1000 nM. The molecule also came in with an IC50 in experiment [2] of 100 to 1000 nM.
Regarding `CCOc1cn(-c2nccnc2Cl)nc1C(=O)Nc1ccc(Oc2ccnc3cc(OC)c(OC)cc23)cc1F` [Compound 190], the Kd in experiment [1] is less than 100 nM. In experiment [2], the IC50 is less than 100 nM.
In experiment [1], `CCOc1cn(-c2cnccc2C(F)(F)F)nc1C(=O)Nc1ccc(Oc2ccnc3cc(OC)c(OC)cc23)c(F)c1` [Compound 198] showed a Kd of less than 100 nM. In experiment [2], the IC50 was less than 100 nM.
Turning to `CCOc1cn(-c2ccc(OC(F)(F)F)cc2C)nc1C(=O)Nc1ccc(Oc2ccnc3cc(OC)c(OC)cc23)cn1` [Compound 113], the Kd in experiment [1] lay in the range of 100 to 1000 nM. For the same molecule, the IC50 in experiment [2] is less than 100 nM.
In the same order, the values of `COc1cc2nccc(Oc3ccc(NC(=O)c4nn(-c5cccnc5)cc4OCC(F)(F)F)nc3)c2cc1OC` [Compound 185] are less than 100 nM and less than 100 nM.
In the same order, the values of `CCOc1cn(-c2cnccc2C)nc1C(=O)Nc1ccc(Oc2ccnc3cc(OC)c(OC)cc23)cc1F` [Compound 151] are less than 100 nM and less than 100 nM.
The like results for `CCOc1cn(-c2cnc(OC)nc2)nc1C(=O)Nc1ccc(Oc2ccnc3cc(OC)c(OC)cc23)cn1` [Compound 148] were, in that order, not below 1000 nM and less than 100 nM.
Molecule `CCOc1cn(-c2ccc(Cl)cc2F)nc1C(=O)Nc1ccc(Oc2ccnc3cc(OC)c(OC)cc23)cn1` [Compound 106] had an equilibrium dissociation constant (Kd) in experiment [1] of 100 to 1000 nM. In experiment [2], this molecule gave an IC50 of less than 100 nM.
The like results for `CCOc1cn(C2CCCN(C)C2)nc1C(=O)Nc1ccc(Oc2ccnc3cc(OC)c(OC)cc23)cc1F` (stereo not shown) [Compound 211] were, in that order, 100 to 1000 nM and less than 100 nM.
In the same order, the values of `CCOc1cn(-c2ccc(OC(F)(F)F)cc2Cl)nc1C(=O)Nc1ccc(Oc2ccnc3cc(OC)c(OC)cc23)cn1` [Compound 115] are not below 1000 nM and less than 100 nM.
Consider `CCOc1cn(-c2c(C)ccnc2C)nc1C(=O)Nc1ccc(Oc2ccnc3cc(OC)c(OC)cc23)cc1F` [Compound 191], for which the Kd in experiment [1] was less than 100 nM. Also, in experiment [2], the IC50 was less than 100 nM.
For the molecule `CCOc1cn(-c2cnc(N)nc2)nc1C(=O)Nc1ccc(Oc2ccnc3cc(OC)c(OC)cc23)cn1` [Compound 10], in experiment [1], the Kd is less than 100 nM. The IC50 in experiment [2] was less than 100 nM.
As for `CCOc1cn(-c2ccc(C(F)(F)F)cc2C(F)(F)F)nc1C(=O)Nc1ccc(Oc2ccnc3cc(OC)c(OC)cc23)cn1` [Compound 105], in experiment [1], the Kd was in the range of 100 to 1000 nM. This molecule also came in with an IC50 in experiment [2] of less than 100 nM.
The like results for `CCOc1cn(-c2cnc(N)nc2)nc1C(=O)Nc1ccc(Oc2ccnc3cc(OC)c(OC)cc23)c(F)c1` [Compound 141] were, in that order, less than 100 nM and less than 100 nM.

Source of the values: patent US10934274B2, “Quinoline derivatives as TAM RTK inhibitors” (Qurient Co., Ltd., priority 2015, dated 2021).
